Reference: patent publication US11214803B2, “Modulators of YAP1 expression” (Ionis Pharmaceuticals, Inc., priority 2019, dated 2022)

Key:
[1] = system: SCC-9 cells; test: Cell proliferation assay in SCC-9 cells, CellTiter-Glo (Example 40); type: cell-based, human; conditions: free uptake, approximately 144 hours
Description: Modified oligonucleotides described in the studies above were tested at various doses in tongue squamous cell carcinoma cell line SCC-9. A control oligonucleotide 792169, described herein above, was also tested.
Cultured SCC-9 cells at a density of 1000 cells/well were treated using free uptake with modified oligonucleotides diluted to concentrations described in the tables below. After approximately 144 hours, cell proliferation was measured using the luminescent cell viability CellTiter-Glo® 2.0 Assay (Promega). Results are presented in the tables below as percent control of the amount of luminescence in samples treated with modified oligonucleotides relative to untreated control cells (% UTC).

[2] = system: Yap1 mRNA; test: Yap1 mRNA in NCI H292 cells, RNA analysis (Example 32); type: cell-based, human; conditions: free uptake, approximately 48 hours
Description: Modified oligonucleotides described in the studies above were tested at various doses in mucoepidermoid pulmonary carcinoma cell line […]. A control oligonucleotide 792169 was also tested.
Cultured NCI H292 cells at a density of 5000 cells per well were treated using free uptake with modified oligonucleotides diluted to concentrations described in the tables below. After approximately 48 hours, Yap1 mRNA levels were measured as previously described using the Human Yap1 primer-probe set RTS4814. Yap1 mRNA levels were normalized to actin-beta content, as measured by primer probe set RTS5002. Results are presented in the tables below as percent control of the amount of Yap1 mRNA relative to untreated control cells (% UTC).

[3] = system: Yap1 mRNA; test: Yap1 mRNA in Detroit-562 cells, RNA analysis (Example 38); type: cell-based, human; conditions: free uptake, approximately 48 hours
Description: Modified oligonucleotides described in the studies above were tested at various doses in pharynx carcinoma cell line Detroit-562. A control oligonucleotide 792169, described herein above, was also tested.
Cultured Detroit-562 cells at a density of 5000 cells per well were treated using free uptake with modified oligonucleotides diluted to concentrations described in the tables below. After approximately 48 hours, Yap1 mRNA levels were measured as previously described using the Human Yap1 primer-probe set RTS4814. Yap1 mRNA levels were normalized to actin-beta content, as measured by primer probe set RTS5002. Results are presented in the tables below as percent control of the amount of Yap1 mRNA relative to untreated control cells (% UTC).

[4] = system: SNU-899 cells; test: Cell proliferation assay in SNU-899 cells, CellTiter-Glo (Example 43); type: cell-based, human; conditions: free uptake, approximately 144 hours
Description: Modified oligonucleotides described in the studies above were tested at various doses in laryngeal squamous cell carcinoma cell line SNU-899. A control oligonucleotide 792169, described herein above, was also tested.
Cultured SNU-899 cells at a density of 1000 cells/well were treated using free uptake with modified oligonucleotides diluted to concentrations described in the tables below. After approximately 144 hours, cell proliferation was measured using the luminescent cell viability CellTiter-Glo® 2.0 Assay (Promega). Results are presented in the tables below as percent control of the amount of luminescence in samples treated with modified oligonucleotides relative to untreated control cells (% UTC).

[5] = system: Yap1 mRNA; test: Yap1 mRNA in CAL27 cells, RNA analysis (Example 37); type: cell-based, human; conditions: free uptake, approximately 48 hours
Description: Modified oligonucleotides described in the studies above were tested at various doses in tongue squamous cell carcinoma line CAL27. A control oligonucleotide 792169, described herein above, was also tested.
Cultured CAL27 cells at a density of 5000 cells per well were treated using free uptake with modified oligonucleotides diluted to concentrations described in the tables below. After approximately 48 hours, Yap1 mRNA levels were measured as previously described using the Human Yap1 primer-probe set RTS4814. Yap1 mRNA levels were normalized to actin-beta content, as measured by primer probe set RTS5002. Results are presented in the tables below as percent control of the amount of Yap1 mRNA relative to untreated control cells (% UTC).

[6] = Tolerability in CD-1 mice, plasma chemistry markers (Example 19); type: in vivo; conditions: male CD-1 mice, 50 mg/kg s.c. twice a week for four weeks (8 treatments), day 26
Description: CD-1 mice were treated with modified oligonucleotides selected from studies described above and evaluated for changes in the levels of various plasma chemistry markers.
Groups of four male CD-1 mice at 4-6 weeks of age (obtained from Charles River) were injected subcutaneously twice a week for four weeks (for a total of 8 treatments) with 50 mg/kg of modified oligonucleotides. One group of male CD-1 mice was injected with PBS. Mice were euthanized on day 26 post start of treatment (24 hrs following the final administration).

[7] = system: Yap1 mRNA; test: Yap1 mRNA in BICR-22 cells, RNA analysis (Example 35); type: cell-based, human; conditions: free uptake, approximately 48 hours
Description: Modified oligonucleotides described in the studies above were tested at various doses in tongue squamous carcinoma (lymph node metastasis) cell line BICR-22. A control oligonucleotide 792169, described herein above, was also tested.
Cultured BICR-22 cells at a density of 5000 cells per well were treated using free uptake with modified oligonucleotides diluted to concentrations described in the tables below. After approximately 48 hours, Yap1 mRNA levels were measured as previously described using the Human Yap1 primer-probe set RTS4814. Yap1 mRNA levels were normalized to actin-beta content, as measured by primer probe set RTS5002. Results are presented in the tables below as percent control of the amount of Yap1 mRNA relative to untreated control cells (% UTC).

[8] = system: SNU-1214 cells; test: Cell proliferation assay in SNU-1214 cells, CellTiter-Glo (Example 46); type: cell-based, human; conditions: free uptake, approximately 144 hours
Description: Modified oligonucleotides described in the studies above were tested at various doses in laryngeal squamous cell carcinoma cell line […]. A control oligonucleotide 792169, described herein above, was also tested.
Cultured SNU-1214 cells at a density of 1000 cells/well were treated using free uptake with modified oligonucleotides diluted to concentrations described in the tables below. After approximately 144 hours, cell proliferation was measured using the luminescent cell viability CellTiter-Glo® 2.0 Assay (Promega). Results are presented in the tables below as percent control of the amount of luminescence in samples treated with modified oligonucleotides relative to untreated control cells (% UTC).

1198440 (AAGTGTATGTCAGAAG; cEt, 2'-MOE, 5-methylcytosine, phosphorothioate modifications, further chemistry not given here) [compound 1198440]
Antiproliferative effect (cell proliferation, luminescence) ([1]; 0.04 μM): 88 % UTC | Antiproliferative effect (cell proliferation, luminescence) ([1]; 0.2 μM): 46 % UTC | Antiproliferative effect (cell proliferation, luminescence) ([1]; 1 μM): 35 % UTC | Antiproliferative effect (cell proliferation, luminescence) ([1]; 5 μM): 31 % UTC | human Yap1 mRNA expression ([2]; 0.04 μM): 89 % UTC | human Yap1 mRNA expression ([2]; 0.2 μM): 53 % UTC | human Yap1 mRNA expression ([2]; 1 μM): 18 % UTC | human Yap1 mRNA expression ([2]; 5 μM): 5 % UTC | human Yap1 mRNA expression ([3]; 0.04 μM): 32 % UTC | human Yap1 mRNA expression ([3]; 0.2 μM): 8 % UTC | human Yap1 mRNA expression ([3]; 1 μM): 3 % UTC | human Yap1 mRNA expression ([3]; 5 μM): 2 % UTC | Antiproliferative effect (cell proliferation, luminescence) ([4]; 0.04 μM): 82 % UTC | Antiproliferative effect (cell proliferation, luminescence) ([4]; 0.2 μM): 75 % UTC | Antiproliferative effect (cell proliferation, luminescence) ([4]; 1 μM): 69 % UTC | Antiproliferative effect (cell proliferation, luminescence) ([4]; 5 μM): 66 % UTC | human Yap1 mRNA expression ([5]; 0.08 μM): 23 % UTC | human Yap1 mRNA expression ([5]; 0.4 μM): 6 % UTC | human Yap1 mRNA expression ([5]; 2 μM): 4 % UTC | human Yap1 mRNA expression ([5]; 10 μM): 4 % UTC | ALT [6]: 121 U/L | AST [6]: 140 U/L | BUN [6]: 19 mg/dL | TBIL [6]: 0.22 mg/dL | human Yap1 mRNA expression ([7]; 0.04 μM): 44 % UTC | human Yap1 mRNA expression ([7]; 0.2 μM): 14 % UTC | human Yap1 mRNA expression ([7]; 1 μM): 4 % UTC | human Yap1 mRNA expression ([7]; 5 μM): 4 % UTC | Antiproliferative effect (cell proliferation, luminescence) ([8]; 0.04 μM): 84 % UTC | Antiproliferative effect (cell proliferation, luminescence) ([8]; 0.2 μM): 72 % UTC | Antiproliferative effect (cell proliferation, luminescence) ([8]; 1 μM): 53 % UTC | Antiproliferative effect (cell proliferation, luminescence) ([8]; 5 μM): 49 % UTC
